Tests used:
Test in all cases: CelltiterGlo viability cell assay
Format in all cases: cell-based
[1] = system: HCC1143
Method: (§1) Supplementary Figure 13. […] Viability of
(§2) (a) Multiple Myeloma lines and (b) Breast Cancer cell lines following 3 or 6 days treatment with […]
(§3) manufacturer’s instructions as described in the Supplementary methods. Data are normalized to DMSO control. N=3 biological replicates, +/- SEM. Source data are provided as a Source Data […]
(§4) CelltiterGlo viability cell assay
(§5) Cells were seeded in 96 well plates at per-well densities of 10000 (MDA-MB436, ATCC-HTB130), 15000 (8226, kind gift from Rodger Tiedemann, Princess Margaret Cancer Centre), […]
(§6) kind gift from Rodger Tiedemann, Princess Margaret Cancer Centre) and 50000 (CAL851, kind gift from Mathieu Lupien, Princess Margaret Cancer Centre) and were treated at increasing concentrations of compounds ranging from 0.01 μM to 30 μM and assessed for proliferation using CelltiterGlo (Promega) following manufacturer’s instructions, as readout on days 3 and 6 as indicated. All cell lines were mycoplasma negative, as determined by MycoAlert™ Mycoplasma Detection Kit(Lonza). […]

[2] = system: HCC1806
Method: as §1, §2, §3, §4, §5, §6

[3] = system: SKMM2
Method: as §1, §2, §3, §4, §5, §6

## COc1cc(OC)cc(-c2noc(N3CCN(C)C4(CCN(c5ccccc5)CC4)C3)n2)c1 [MRK-740N]
[1]; HCC1143, 3 day, 0.01 uM
  viability Average: 99.63
  viability Replicate 1: 94.06
  viability Replicate 2: 105.87
  viability Replicate 3: 98.96
[1]; HCC1143, 3 day, 0.03 uM
  viability Average: 100.04
  viability Replicate 1: 98.98
  viability Replicate 2: 103.01
  viability Replicate 3: 98.14
[1]; HCC1143, 3 day, 0.1 uM
  viability Average: 100.66
  viability Replicate 1: 94.28
  viability Replicate 2: 108.89
  viability Replicate 3: 98.81
[1]; HCC1143, 3 day, 0.3 uM
  viability Average: 101.81
  viability Replicate 1: 94.36
  viability Replicate 2: 110.71
  viability Replicate 3: 100.36
[1]; HCC1143, 3 day, 1 uM
  viability Average: 102.28
  viability Replicate 1: 95.62
  viability Replicate 2: 111.25
  viability Replicate 3: 99.98
[1]; HCC1143, 3 day, 3 uM
  viability Average: 102.58
  viability Replicate 1: 95.70
  viability Replicate 2: 110.25
  viability Replicate 3: 101.79
[1]; HCC1143, 3 day, 9.5 uM
  viability Average: 96.93
  viability Replicate 1: 91.87
  viability Replicate 2: 108.74
  viability Replicate 3: 90.19
[1]; HCC1143, 3 day, 30 uM
  viability Average: 42.44
  viability Replicate 1: 41.34
  viability Replicate 2: 45.73
  viability Replicate 3: 40.25
[1]; HCC1143, 6 day, 0.03 uM
  viability Average: 106.15
  viability Replicate 1: 104.58
  viability Replicate 2: 106.98
  viability Replicate 3: 106.88
[1]; HCC1143, 6 day, 0.1 uM
  viability Average: 106.29
  viability Replicate 1: 110.44
  viability Replicate 2: 106.94
  viability Replicate 3: 101.48
[1]; HCC1143, 6 day, 0.3 uM
  viability Average: 109.27
  viability Replicate 1: 115.47
  viability Replicate 2: 108.44
  viability Replicate 3: 103.89
[1]; HCC1143, 6 day, 1 uM
  viability Average: 112.12
  viability Replicate 1: 119.58
  viability Replicate 2: 108.44
  viability Replicate 3: 108.34
[1]; HCC1143, 6 day, 3 uM
  viability Average: 118.66
  viability Replicate 1: 128.58
  viability Replicate 2: 111.85
  viability Replicate 3: 115.55
[1]; HCC1143, 6 day, 9.5 uM
  viability Average: 112.33
  viability Replicate 1: 117.62
  viability Replicate 2: 107.90
  viability Replicate 3: 111.46
[1]; HCC1143, 6 day, 30 uM
  viability Average: 53.32
  viability Replicate 1: 56.13
  viability Replicate 2: 63.79
  viability Replicate 3: 40.04
[2]; HCC1806, 3 day, 0.01 uM
  viability Average: 114.56
  viability Replicate 1: 108.66
  viability Replicate 2: 106.14
  viability Replicate 3: 128.88
[2]; HCC1806, 3 day, 0.03 uM
  viability Average: 112.72
  viability Replicate 1: 107.72
  viability Replicate 2: 100.89
  viability Replicate 3: 129.55
[2]; HCC1806, 3 day, 0.1 uM
  viability Average: 114.82
  viability Replicate 1: 110.69
  viability Replicate 2: 103.88
  viability Replicate 3: 129.88
[2]; HCC1806, 3 day, 0.3 uM
  viability Average: 114.56
  viability Replicate 1: 110.72
  viability Replicate 2: 101.60
  viability Replicate 3: 131.35
[2]; HCC1806, 3 day, 1 uM
  viability Average: 117.58
  viability Replicate 1: 111.18
  viability Replicate 2: 107.64
  viability Replicate 3: 133.91
[2]; HCC1806, 3 day, 3 uM
  viability Average: 114.75
  viability Replicate 1: 110.32
  viability Replicate 2: 101.81
  viability Replicate 3: 132.12
[2]; HCC1806, 3 day, 9.5 uM
  viability Average: 100.22
  viability Replicate 1: 94.76
  viability Replicate 2: 91.96
  viability Replicate 3: 113.95
[2]; HCC1806, 3 day, 30 uM
  viability Average: 31.36
  viability Replicate 1: 29.97
  viability Replicate 2: 27.69
  viability Replicate 3: 36.41
[2]; HCC1806, 6 day, 0.03 uM
  viability Average: 104.14
  viability Replicate 1: 102.41
  viability Replicate 2: 102.60
  viability Replicate 3: 107.42
[2]; HCC1806, 6 day, 0.1 uM
  viability Average: 107.97
  viability Replicate 1: 107.96
  viability Replicate 2: 108.22
  viability Replicate 3: 107.74
[2]; HCC1806, 6 day, 0.3 uM
  viability Average: 112.99
  viability Replicate 1: 109.14
  viability Replicate 2: 116.56
  viability Replicate 3: 113.26
[2]; HCC1806, 6 day, 1 uM
  viability Average: 115.10
  viability Replicate 1: 111.79
  viability Replicate 2: 117.79
  viability Replicate 3: 115.71
[2]; HCC1806, 6 day, 3 uM
  viability Average: 114.65
  viability Replicate 1: 112.70
  viability Replicate 2: 114.15
  viability Replicate 3: 117.09
[2]; HCC1806, 6 day, 9.5 uM
  viability Average: 110.91
  viability Replicate 1: 107.82
  viability Replicate 2: 111.79
  viability Replicate 3: 113.11
[2]; HCC1806, 6 day, 30 uM
  viability Average: 35.99
  viability Replicate 1: 27.63
  viability Replicate 2: 38.19
  viability Replicate 3: 42.14
[3]; SKMM2, 3 day, 0.01 uM
  viability Average: 99.67
  viability Replicate 1: 98.81
  viability Replicate 2: 100.27
  viability Replicate 3: 99.94
[3]; SKMM2, 3 day, 0.03 uM
  viability Average: 99.81
  viability Replicate 1: 100.19
  viability Replicate 2: 99.28
  viability Replicate 3: 99.96
[3]; SKMM2, 3 day, 0.1 uM
  viability Average: 99.75
  viability Replicate 1: 99.33
  viability Replicate 2: 101.27
  viability Replicate 3: 98.65
[3]; SKMM2, 3 day, 0.3 uM
  viability Average: 100.91
  viability Replicate 1: 100.74
  viability Replicate 2: 101.32
  viability Replicate 3: 100.69
[3]; SKMM2, 3 day, 1 uM
  viability Average: 99.32
  viability Replicate 1: 99.24
  viability Replicate 2: 100.37
  viability Replicate 3: 98.34
[3]; SKMM2, 3 day, 3 uM
  viability Average: 97.16
  viability Replicate 1: 96.17
  viability Replicate 2: 98.52
  viability Replicate 3: 96.79
[3]; SKMM2, 3 day, 9.5 uM
  viability Average: 95.36
  viability Replicate 1: 96.79
  viability Replicate 2: 94.04
  viability Replicate 3: 95.26
[3]; SKMM2, 3 day, 30 uM
  viability Average: 58.34
  viability Replicate 1: 67.94
  viability Replicate 2: 41.11
  viability Replicate 3: 65.95
[3]; SKMM2, 6 day, 0.01 uM
  viability Average: 99.21
  viability Replicate 1: 91.53
  viability Replicate 2: 105.08
  viability Replicate 3: 101.01
[3]; SKMM2, 6 day, 0.03 uM
  viability Average: 96.26
  viability Replicate 1: 90.23
  viability Replicate 2: 98.46
  viability Replicate 3: 100.08
[3]; SKMM2, 6 day, 0.1 uM
  viability Average: 98.07
  viability Replicate 1: 90.96
  viability Replicate 2: 102.71
  viability Replicate 3: 100.56
[3]; SKMM2, 6 day, 0.3 uM
  viability Average: 97.57
  viability Replicate 1: 90.30
  viability Replicate 2: 102.21
  viability Replicate 3: 100.20
[3]; SKMM2, 6 day, 1 uM
  viability Average: 94.68
  viability Replicate 1: 89.98
  viability Replicate 2: 95.60
  viability Replicate 3: 98.45
[3]; SKMM2, 6 day, 3 uM
  viability Average: 95.79
  viability Replicate 1: 90.06
  viability Replicate 2: 96.19
  viability Replicate 3: 101.13
[3]; SKMM2, 6 day, 9.5 uM
  viability Average: 94.06
  viability Replicate 1: 88.71
  viability Replicate 2: 96.00
  viability Replicate 3: 97.48
[3]; SKMM2, 6 day, 30 uM
  viability Average: 64.98
  viability Replicate 1: 81.69
  viability Replicate 2: 45.98
  viability Replicate 3: 67.29

Source: PMC6917776, “Discovery of a chemical probe for PRDM9” (Nature Communications, 2019)
